Values joined by “and” are separate entries in the source; they are usually repeats but may differ in a detail not shown here. Equal values may be shown once. Read-outs that look alike come from different tables or passages of the source. One block for each compound: values may come before it.
Experiments:
[1] = molecular target: hippocampus homogenates of one AD patient (tau) (Homo sapiens, UniProt P10636); assay: Saturation binding assay of ^3H-THK5117 in hippocampus homogenates; conditions: one Alzheimer brain
Protocol: (§1) Human brain tissues from eight Alzheimer patients and eight controls were obtained from the Netherlands Brain Bank (demographic details in Table 1), and homogenized in PBS containing 0.1 % BSA and protease/phosphatase inhibitor.
(§2) Saturation binding assays were carried out with incubation of temporal cortex and hippocampus homogenates (0.1 mg tissue) with ^3H-THK5117 (0.04-270 nM) for 2 h at room temperature. Non-specific binding was determined with 1 μM THK5117. The binding reaction was terminated by filtering through glass fiber filters (pre-soaked for 3 h in 0.3 % polyethylenimine), and rinsing three times with cold binding buffer, and counted with a beta scintillation counter (Beckman Coulter LS6500). The results were analyzed with GraphPad Prism software (version 5.0f for Mac OS X, GraphPad Software, San Diego California USA). The equilibrium dissociation constant (Kd) and maximum number of binding sites (Bmax) were then determined.

[2] = test system: tau (AT8) in paraffin sections of anterior and posterior hippocampus; assay: ^3H-THK5117 autoradiography versus AT8 immunostaining on paraffin hippocampus sections; format: binding, Human; conditions: adjacent paraffin sections, AD case one
Text: Routine pathology with AT8 has been performed on anterior and posterior hippocampus paraffin sections from the right hemisphere of the three AD cases. Autoradiographies with ^3H-THK5117 on adjacent sections have been performed after deparafinization following the same protocol as cited above.

[3] = test system: frozen brain sections from left hemispheres of AD cases and control case (tau); assay: ^3H-THK5117 autoradiography on large frozen brain hemisphere sections; format: binding, Human
Text: Postmortem brain tissue for autoradiography studies was obtained from three patients with AD that all three had been clinically followed (by A.N.) at the Department of Geriatric Medicine, Karolinska University Hospital, Huddinge, Sweden. The left hemisphere of each brain was frozen in large block sections. The right hemispheres were fixed in formaldehyde, brain tissue was sampled according to the BrainNet Europe protocol and histopathological investigations were undertaken (by I.N.) to confirm AD pathology (see Additional file 1).
Frozen brain sections ([…]) from the left hemispheres of the three AD cases and the healthy control case were cut with a cryostat at −20 °C and thaw-mounted on chrome alum gelatin-subbed slides following a previously described protocol.
For each case, frozen sections were dried, pre-incubated for 10 min with PBS + 0.1%BSA, and were then incubated for one hour with 4 nM ^3H-THK5117. The non-specific binding assay was performed on adjacent sections in the presence of 10 μM THK5117. After incubation, sections were washed 3 times for 5 min with cold incubation buffer, dipped into cold distilled water, and allowed to dry for at least 24 h. A Fujifilm BAS-2500 phosphor imaging plate was then exposed to the section, along with a tritium standard, for three days (Larodan Fine Chemical AB, Malmö, Sweden) before being scanned by a phosphoimager Fujifilm BAS-2500.
Binding of the tracer was quantitatively assessed using MultiGauge Fujifilm software (V3.0). Two independent raters manually segmented different regions of interest, as defined by Duvernoy in “The Human Hippocampus” [19], resulting in regional mean uptake values for each segment. Inter-rater agreement was assessed for all uptake values using a Bland-Altman plot, with limits of agreement set to 95 %. When agreement was satisfactory, regional uptake values from both raters were averaged for subsequent analyses.

[4] = molecular target: post-mortem AD temporal brain tissue homogenates (tau) (Homo sapiens, UniProt P10636); assay: Saturation binding assay of ^3H-THK5117 in temporal cortex homogenates; conditions: AD temporal lobe homogenates
Protocol: as §1, §2

[5] = test system: brain homogenates from patients with AD (tau); assay: Regional binding studies with ^3H-THK5117 (3 nM) in brain homogenates; design: species or system Human; conditions: AD cases
Protocol: as §1
Regional binding studies with ^3H-THK5117 were carried out on the brain homogenates from temporal cortex, frontal lobe, parietal lobe, caudate nucleus, hippocampus and cerebellum that were incubated with a single concentration of ^3H-THK5117 (3 nM). Non-specific binding was determined with 1 μM of THK5117. Comparisons between AD and control tissues were made using Mann–Whitney non-parametrical tests, with a threshold for significance of p < 0.05.

[6] = molecular target: ^3H-THK5117 binding sites in AD temporal cortex homogenates (tau) (Homo sapiens, UniProt P10636); assay: Competition binding against ^3H-THK5117 (3 nM) in temporal cortex homogenates; conditions: for Ki: AD temporal cortices
Protocol: as §1
(§3) The specificity and selectivity of ^3H-THK5117 binding was determined by incubating homogenates (0.1 mg tissue) from Alzheimer’s patients’ temporal cortex and hippocampus with ^3H-THK5117 (3 nM), in the presence of THK5117 (10^−5 -10^−13 M), FDDNP (10^−6 -10^−14 M) or BTA-1 (10^−5 -10^−13 M). The results were analyzed with GraphPad Prism software, and the resulting inhibitory constants (Ki) were determined.

[7] = test system: ^3H-PIB binding sites (amyloid); assay: Competition between ^3H-PIB and unlabeled THK5117; design: species or system Human
neurofibrillary tangles = neurofibrillary tangles (Homo sapiens, UniProt P10636); assay: THK5117 autofluorescence staining with adjacent AT8 immunostaining; format: binding; conditions: paraffin hippocampus section of another AD case; confirmed with AT8 on adjacent section
Text: A paraffin section from hippocampus of a patient with confirmed AD (at death, Braak VI, from the Netherlands brain bank) were quenched and stained with THK5117 following the procedure used by Okamura and colleagues for autofluorescence studies. An adjacent section was labeled with AT8 anti-tau and assessed using the EnVision + System HRP (DAB) (Dako Denmark) detection method.

[8] = test system: ^3H-THK5117 binding sites in hippocampus homogenates of one AD case (tau); assay: Competition binding THK5117 against ^3H-THK5117 (3 nM) in hippocampus homogenates; design: species or system Human
Protocol: as §1, §3
A. Saturation binding curve and B. Scatchard plot of ^3H-THK5117 (0.04-270nM) for hippocampus homogenates of one AD patient. The plain regression line was determined by GraphPad Prism software and corresponds to the low affinity site. The dotted regression line was determined manually and corresponds to the high affinity site. Corresponding Kd and Bmax values are mentioned below the curve. C. Competition binding curve between THK5117 (10^-13-10^-5M) and ^3H-THK5117 (3nM) for hippocampus homogenates of one AD case. […] Ki Sup Hi = Ki for super high binding site; Ki Hi = Ki for high binding site; Ki Lo = Ki for low binding site.

Sequence of post-mortem AD temporal brain tissue homogenates (tau) (P10636 623-758 limits assumed): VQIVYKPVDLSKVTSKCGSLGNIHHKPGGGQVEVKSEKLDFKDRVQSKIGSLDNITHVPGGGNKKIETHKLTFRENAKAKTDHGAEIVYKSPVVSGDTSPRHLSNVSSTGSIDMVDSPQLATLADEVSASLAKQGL
Sequence of hippocampus homogenates of one AD patient (tau) (P10636 623-695 limits assumed): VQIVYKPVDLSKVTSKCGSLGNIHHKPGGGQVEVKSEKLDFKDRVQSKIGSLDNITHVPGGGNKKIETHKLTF
Sequence of ^3H-THK5117 binding sites in AD temporal cortex homogenates (tau) (P10636 623-708 limits assumed): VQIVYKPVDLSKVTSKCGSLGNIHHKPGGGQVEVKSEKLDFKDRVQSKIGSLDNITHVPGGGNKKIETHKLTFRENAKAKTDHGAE
Sequence of neurofibrillary tangles (P10636 623-758 limits assumed): as the sequence (P10636 623-758 limits assumed) above

Structure (SMILES): [3H]CNc1ccc(-c2ccc3cc(OCC(O)CF)ccc3n2)cc1 (stereo not shown) [^3H-THK5117, 1-Fluoro-3-((2-(4-([^3H]methylamino)phenyl)quinolin-6-yl)oxy)propan-2-ol]
Bmax, first binding site ([1]; high affinity site): 250 fmol/mg | Bmax, second binding site ([1]; low affinity site): 1226 fmol/mg | Autoradiography binding pattern versus AT8 immunostaining [2]: identical binding pattern | ^3H-THK5117 specific binding ([3]; Amygdala, AD Case 1): 507 fmol/mg | ^3H-THK5117 specific binding ([3]; Cingulate gyrus, AD Case 1): 292 fmol/mg | ^3H-THK5117 specific binding ([3]; Cingulate gyrus, AD Case 2): 120 fmol/mg | ^3H-THK5117 specific binding ([3]; Cingulate gyrus, AD Case 3): 110 fmol/mg | ^3H-THK5117 specific binding ([3]; Entorhinal cortex, AD Case 1): 713 fmol/mg | ^3H-THK5117 specific binding ([3]; Entorhinal cortex, AD Case 2): 126 fmol/mg | ^3H-THK5117 specific binding ([3]; Entorhinal cortex, AD Case 3): 53 fmol/mg | ^3H-THK5117 specific binding ([3]; Fusiform gyrus, AD Case 1): 585 fmol/mg | ^3H-THK5117 specific binding ([3]; Fusiform gyrus, AD Case 2): 189 fmol/mg | ^3H-THK5117 specific binding ([3]; Fusiform gyrus, AD Case 3): 52 fmol/mg | ^3H-THK5117 specific binding ([3]; Hippocampus, AD Case 1): 693 fmol/mg | ^3H-THK5117 specific binding ([3]; Hippocampus, AD Case 2): 171 fmol/mg | ^3H-THK5117 specific binding ([3]; Hippocampus, AD Case 3): 112 fmol/mg | ^3H-THK5117 specific binding ([3]; Inferior temporal gyrus, AD Case 1): 764 fmol/mg | ^3H-THK5117 specific binding ([3]; Inferior temporal gyrus, AD Case 2): 125 fmol/mg | ^3H-THK5117 specific binding ([3]; Inferior temporal gyrus, AD Case 3): 59 fmol/mg | ^3H-THK5117 specific binding ([3]; Insular cortex, AD Case 1): 423 fmol/mg | ^3H-THK5117 specific binding ([3]; Insular cortex, AD Case 2): 68 fmol/mg | ^3H-THK5117 specific binding ([3]; Insular cortex, AD Case 3): 50 fmol/mg | ^3H-THK5117 specific binding ([3]; Middle frontal gyrus, AD Case 1): 276 fmol/mg | ^3H-THK5117 specific binding ([3]; Middle frontal gyrus, AD Case 2): 55 fmol/mg | ^3H-THK5117 specific binding ([3]; Middle frontal gyrus, AD Case 3): 56 fmol/mg | ^3H-THK5117 specific binding ([3]; Middle temporal gyrus, AD Case 1): 495 fmol/mg | ^3H-THK5117 specific binding ([3]; Middle temporal gyrus, AD Case 2): 140 fmol/mg | ^3H-THK5117 specific binding ([3]; Middle temporal gyrus, AD Case 3): 48 fmol/mg | ^3H-THK5117 specific binding ([3]; Postcentral gyrus, AD Case 1): 312 fmol/mg | ^3H-THK5117 specific binding ([3]; Postcentral gyrus, AD Case 2): 77 fmol/mg | ^3H-THK5117 specific binding ([3]; Postcentral gyrus, AD Case 3): 75 fmol/mg | ^3H-THK5117 specific binding ([3]; Precentral gyrus, AD Case 1): 310 fmol/mg | ^3H-THK5117 specific binding ([3]; Precentral gyrus, AD Case 2): 32 fmol/mg | ^3H-THK5117 specific binding ([3]; Precentral gyrus, AD Case 3): 102 fmol/mg | ^3H-THK5117 specific binding ([3]; Putamen, AD Case 1): 242 fmol/mg | ^3H-THK5117 specific binding ([3]; Superior frontal gyrus, AD Case 1): 344 fmol/mg | ^3H-THK5117 specific binding ([3]; Superior frontal gyrus, AD Case 2): 57 fmol/mg | ^3H-THK5117 specific binding ([3]; Superior frontal gyrus, AD Case 3): 114 fmol/mg | ^3H-THK5117 specific binding ([3]; Superior temporal gyrus, AD Case 1): 363 fmol/mg | ^3H-THK5117 specific binding ([3]; Superior temporal gyrus, AD Case 2): 114 fmol/mg | ^3H-THK5117 specific binding ([3]; Superior temporal gyrus, AD Case 3): 53 fmol/mg | ^3H-THK5117 specific binding ([3]; Thalamus, AD Case 1): 349 fmol/mg | Autoradiography binding in control case ([3]; control case compared to the three AD cases, 4 nM): Low and regional binding | Bmax1 ([4]; high affinity site, determined manually from Scatchard plot): 250 fmol/mg | Bmax2 ([4]; low affinity site (GraphPad Prism fit)): 1416 fmol/mg | Regional binding of ^3H-THK5117 ([5]; caudate nucleus homogenates): 198 ± 30 fmol/mg | Regional binding of ^3H-THK5117 ([5]; cerebellum homogenates): very low | Regional binding of ^3H-THK5117 ([5]; hippocampus homogenates): 198 ± 67 fmol/mg | Regional binding of ^3H-THK5117 ([5]; parietal lobe homogenates): 105 ± 46 fmol/mg | Regional binding of ^3H-THK5117 ([5]; temporal lobe homogenates): 110 ± 47 fmol/mg

Structure (SMILES): CNc1ccc(-c2ccc3cc(OCC(O)CF)ccc3n2)cc1 (stereo not shown) [^3H-THK5117, 1-Fluoro-3-((2-(4-([^3H]methylamino)phenyl)quinolin-6-yl)oxy)propan-2-ol]
Kd ([1]; high affinity site, read-out: Kd, first binding site): 3.1 nM | Kd ([1]; low affinity site, read-out: Kd, second binding site): 34 nM | Kd ([4]; high affinity site, determined manually from Scatchard plot, averaged from seven experiments, read-out: Kd1): 2.2 nM | Kd ([4]; low affinity site (GraphPad Prism fit), read-out: Kd2): 24 nM and 23.6 nM

Competition with ^3H-THK5117 ([6]; temporal cortex homogenates of four AD cases, ^3H-THK5117 3 nM): No competition
Structure (SMILES): CNc1ccc(-c2nc3ccccc3s2)cc1 [BTA-1, 2-(4-methylaminophenyl)benzothiazole, reference compound]

Structure (SMILES): CNc1ccc(-c2ccc3cc(OCC(O)CF)ccc3n2)cc1 (stereo not shown) [THK5117]
Competition between ^3H-PIB and unlabeled THK5117 [7]: No competition | Autofluorescence staining (neurofibrillary tangles): THK5117 binding on the neurofibrillary tangles | Ki ([6]; ^3H-THK5117 3 nM, averaged from ten experiments, read-out: Ki2): 16 nM | Ki ([6]; ^3H-THK5117 3 nM, averaged from ten experiments, read-out: Ki3): 750 nM | Ki ([6]; potential third site, model constraint >100 for start of curve, ten experiments, read-out: Ki1): 0.001 nM | Number of binding sites in competition binding curve [8]: two different binding sites

From article PMC4489196, “Visualization of regional tau deposits using ^3H-THK5117 in Alzheimer brain tissue” (Acta Neuropathologica Communications, 2015)
